For 19 compounds, Ki results are on record in BindingDB's records for doi:10.1021/acs.biochem.6b00446 (Avanti Polar Lipids, 2016).

Where “and” joins values, the source holds several entries; their conditions need not be identical. Equal entries are not always repeated.

This experiment deals with T1, Fatty acid-binding protein, liver (Mus musculus, UniProt P12710).
T1 sequence (P12710 whole entry): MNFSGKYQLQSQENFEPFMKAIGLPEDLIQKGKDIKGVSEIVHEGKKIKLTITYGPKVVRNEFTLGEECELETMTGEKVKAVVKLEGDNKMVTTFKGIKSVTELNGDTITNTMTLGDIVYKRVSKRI
The experiment in a line: FABP1 Fluorescent Ligand Displacement Assay. An excerpt:
Data were corrected for the following blanks/controls: protein only, fluorescent ligand only, fluorescent ligand with anincreasing amount of nonfluorescent ligand, and photobleaching.
`CCCCC/C=C\C/C=C\C/C=C\C/C=C\CCCC(=O)OC(CO)CO` came in with a Ki of 61 nM. `CCCCC/C=C\C/C=C\C/C=C\C/C=C\CCCC(=O)Nc1ccc(O)cc1` registered an inhibition constant (Ki) of 29 nM. Compared with the last compound, the Ki is about 2.1-fold lower. As for `C=C(C)[C@@H]1CCC(C)=C[C@H]1c1c(O)cc(CCCCC)cc1O` [2-(6-Isopropenyl-3-methyl-cyclohex-2-enyl)-5-pentyl-benzene-1,3-diol (Cannabidiol)], affinity was put at a Ki of 167 nM. `CCCCCCCC/C=C\CCCCCCCC(=O)OC(CO)CO` [2-Oleoylmonoglycerol (2-OG)] displayed an inhibition constant (Ki) of 40 nM. Regarding `CCCCCCCCCCCCCCCC(=O)OC(CO)CO` [2-Palmitoylmonoglycerol (2-PG)], the Ki turned out to be 70 nM. With `CCCCCCC(C)(C)c1cc(O)c2c(c1)OC(C)(C)[C@@H]1CC=C(CO)C[C@@H]21` [(6aR,10aR)-3-(1,1-dimethyl-heptyl)-9-hydroxymethyl-6,6-dimethyl-6a,7,10,10a-tetrahydro-6H-benzo[c]chromen-1-ol] the figure was 850 nM; with `CCCCCc1cc(O)c2c(c1)OC(C)(C)[C@@H]1CCC(C)=C[C@@H]21` [(10R,10aR)-6,6,9-Trimethyl-3-pentyl-6a,7,8,10a-tetrahydro-6H-benzo[c]chromen-1-ol], 1000 nM; with `CCc1c(-c2ccccc2)c(-c2ccccc2)nn1-c1ccccc1-c1cccc(OCC(=O)O)c1` [((2'-(5-ETHYL-3,4-DIPHENYL-1H-PYRAZOL-1-YL)-3-BIPHENYLYL)OXY)ACETIC ACID], 21 nM and 52 nM. `CCCCCCC(C)(C)c1ccc([C@@H]2C[C@H](O)CC[C@H]2CCCO)c(O)c1` [ChEMBL_75020]: the affinity corresponds to a Ki of 990 nM. That is a sub-micromolar value. Regarding `CCC=CCC=CCC=CCC=CCC=CCC=CCCC(=O)NCCO` [Docosahexaenoylethanolamide (DHEA)], the Ki is 163 nM. In the case of `CCCCCn1cc(C(=O)c2cccc3ccccc23)c2ccccc21` [JWH-018] it was 58 nM. In turn, `CCCCCCCC/C=C\CCCCCCCC(=O)N[C@H](CO)Cc1ccc(O)cc1` [OMDM1] gave a Ki of 40 nM. Consider `CCCCCCCC/C=C\CCCCCCCC(=O)N[C@@H](CO)Cc1ccc(O)cc1` [OMDM2], for which the Ki is 40 nM. In the case of `CCCCCCCC/C=C\CCCCCCCC(=O)NCCO` [Oleamide MEA] it was 43 nM; in that of `CC(=O)Nc1ccc(Nc2nc(-c3ccc(Cl)c(Cl)c3)cs2)cc1` [SCPI1], 350 nM. In the case of `COc1cc([N+](=O)[O-])cc2c1NC(c1ccc(Br)cc1)=NO2` [SCPI3] it was 900 nM. Turning to `Cc1ccc2c(c1)-c1c(ssc1=S)C(C)(C)N2C(=O)CC(C)C` [SCPI4], the Ki stood at 33 nM.

`Cc1c(C(=O)NN2CCCCC2)nn(-c2ccc(Cl)cc2Cl)c1-c1ccc(Cl)cc1` [SR141716] came in with a Ki of 2000 nM. Against the preceding compound, the Ki is about 61-fold higher. Compound `CCCCCC=CCC=CCC=CCC=CCCCC(=O)Nc1ccc(O)cc1C` [VDM11] registered a Ki of 37 nM. Against the preceding compound, the Ki is about 54-fold lower.
